Source: US8377963B2, “Insulin-regulated aminopeptidase (IRAP) inhibitors and uses thereof” (Howard Florey Institute, priority 2007, dated 2013)

What was measured:
IRAP = biological target: T1, IRAP (Homo sapiens, UniProt Q9UIQ6); assay: IRAP enzymatic assay (hydrolysis of Leu-MCA); assay type: biochemical; settings: substrate Leu-MCA, solubilized membranes of HEK 293T cells transfected with IRAP
T1 construct: expressed in transfected cells; host or cells: HEK 293T
Description: An in vitro enzymatic assay was used to initially assess IRAP inhibitory activity.
After solubilization, the membranes were pelleted by centrifugation at 23,100 g for 15 min at 4° C., and the supernatant was reserved as the source of IRAP activity. The enzymatic activities of IRAP were determined by the hydrolysis of the synthetic substrate Leu-MCA (Sigma-Aldrich, Missouri, USA) monitored by the release of a fluorogenic product, MCA, at excitation and emission wavelengths of 380 and 440 nm, respectively. Assays were performed in 96-well plates; each well contains between […] solubilized membrane protein, a range of concentration of substrate in a final volume of 100 μL 50 mM Tris-HCl buffer (pH 7.4). Non-specific hydrolysis of the substrate was corrected by subtracting the emission from incubations with membranes transfected with empty vector. Reactions proceeded at 37° C. for 30 min within a thermostatted FLEX station fluorescence microplate reader (Molecular Devices, Sunnyvale, Calif.). […] Km values of IRAP for Leu-MCA were determined from the kinetic studies. […] All data obtained were from at least three separate experiments performed in duplicate.

Recombinant human LTA4H = biological target: T2, Recombinant human LTA4H (Homo sapiens, UniProt P09960); assay: Leukotriene A4 hydrolase assay; assay type: biochemical; settings: 100 μM; read-out: % inhibition of the catalytic activity of the enzyme
T2 construct: purchased Cayman Chemicals
T2 sequence (P09960 1-611): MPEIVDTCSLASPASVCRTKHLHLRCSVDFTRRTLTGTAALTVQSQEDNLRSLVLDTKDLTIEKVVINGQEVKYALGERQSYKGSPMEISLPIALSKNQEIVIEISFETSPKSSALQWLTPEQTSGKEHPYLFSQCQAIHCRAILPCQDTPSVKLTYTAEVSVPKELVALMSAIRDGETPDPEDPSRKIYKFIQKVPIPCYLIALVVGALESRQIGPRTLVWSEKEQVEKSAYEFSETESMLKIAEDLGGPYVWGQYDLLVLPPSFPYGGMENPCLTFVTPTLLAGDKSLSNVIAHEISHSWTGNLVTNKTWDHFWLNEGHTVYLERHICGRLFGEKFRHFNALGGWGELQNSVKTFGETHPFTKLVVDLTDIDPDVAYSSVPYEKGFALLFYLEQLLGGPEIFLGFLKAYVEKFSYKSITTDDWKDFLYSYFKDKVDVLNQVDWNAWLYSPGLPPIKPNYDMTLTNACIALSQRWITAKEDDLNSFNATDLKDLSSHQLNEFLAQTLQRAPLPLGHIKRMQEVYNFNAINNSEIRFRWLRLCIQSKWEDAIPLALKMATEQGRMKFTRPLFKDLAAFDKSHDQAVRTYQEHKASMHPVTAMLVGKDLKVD
Description: Leukotriene A4 hydrolase assay. Recombinant human LTA4H (Cayman Chemicals Michigan USA) (1-20 μg) was incubated at room temperature with alanine-p-nitroanilide as substrate in 50 mM Tris-HCl buffer, pH 8.0, containing 100 mM KCl with or without increasing concentrations of an inhibitor. The absorbance at 405 nm was measured at 10 min intervals.
Limited inhibition of control enzymes was observed.

hippocampal slices = assay: Hippocampal glucose uptake assay; assay type: cell-based; settings: rat hippocampal slices
Description: Hippocampal glucose uptake assay. Eight week old male Spraque-Dawley rats were deeply anaesthetised with Isofluorothane and killed by decapitation. The brains were rapidly removed and placed into ice-cold, 95% O2, 5% CO2-bubbled artificial cerebrospinal fluid (aCSF: 124 mM NaCl, 2.5 mM KCl, 2 mM CaCl2, 2 mM MgSO4, 26 mM NaHCO3, 1.25 mM NaH2 PO4 pH 7.4) supplemented with 10 mM D-glucose (Sigma). Under aCSF, the hippocampal hemispheres were rapidly dissected out and 200 μm slices prepared on McIllwain tissue chopper with an ice-cold blade and stage. Slices from each hemisphere were kept together and transferred to freshly 95% O2, 5% CO2-bubbled aCSF supplemented with 10 mM D-glucose at 37° C. for 1 hour. All subsequent steps were carried out at 37° C. in a gently shaking chamber with continuous infusion of 95% O2, 5% CO2. Slices from one hemisphere were used as a basal control while slices from the other hemisphere were stimulated, providing an internal control for each animal. […] Tritium content was measured in a Liquid Scintillation Analyser 1900TR (Perkin Elmer, MA, USA).

T1 sequence (Q9UIQ6 whole entry): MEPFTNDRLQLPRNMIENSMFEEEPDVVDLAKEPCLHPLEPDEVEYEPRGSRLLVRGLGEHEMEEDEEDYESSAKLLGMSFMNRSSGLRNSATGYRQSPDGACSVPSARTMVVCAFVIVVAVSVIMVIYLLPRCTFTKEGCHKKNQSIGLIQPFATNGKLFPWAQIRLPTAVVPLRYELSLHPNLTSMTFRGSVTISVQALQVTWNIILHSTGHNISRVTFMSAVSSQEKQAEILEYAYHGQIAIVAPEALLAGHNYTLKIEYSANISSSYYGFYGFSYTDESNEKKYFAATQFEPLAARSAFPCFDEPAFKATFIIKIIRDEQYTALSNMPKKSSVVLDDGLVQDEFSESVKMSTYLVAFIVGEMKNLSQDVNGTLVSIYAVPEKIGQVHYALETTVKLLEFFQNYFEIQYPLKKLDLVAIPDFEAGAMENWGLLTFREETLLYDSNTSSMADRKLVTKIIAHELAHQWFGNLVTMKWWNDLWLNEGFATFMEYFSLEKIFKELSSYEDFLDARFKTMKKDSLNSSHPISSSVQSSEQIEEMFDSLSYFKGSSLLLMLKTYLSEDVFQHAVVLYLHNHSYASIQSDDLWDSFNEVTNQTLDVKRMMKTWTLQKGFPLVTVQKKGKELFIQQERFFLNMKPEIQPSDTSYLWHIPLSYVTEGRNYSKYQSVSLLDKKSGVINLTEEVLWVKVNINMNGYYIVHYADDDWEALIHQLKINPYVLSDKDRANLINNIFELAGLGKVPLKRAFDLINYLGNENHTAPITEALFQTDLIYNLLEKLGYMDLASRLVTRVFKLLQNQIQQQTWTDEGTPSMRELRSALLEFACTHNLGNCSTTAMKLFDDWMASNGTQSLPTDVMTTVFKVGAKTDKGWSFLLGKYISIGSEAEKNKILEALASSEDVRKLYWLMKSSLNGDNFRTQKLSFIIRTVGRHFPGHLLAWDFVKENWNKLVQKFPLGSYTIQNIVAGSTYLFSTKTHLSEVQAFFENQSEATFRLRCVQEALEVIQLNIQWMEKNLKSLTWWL

- IC50 (IRAP): 790 nM
- Ki (IRAP; calculated from IC50=Ki(1+[S]/Km), read-out: K1): 480 nM
- inhibition at 100 µM (Recombinant human LTA4H): 0%
SMILES: CCOC(=O)C1=C(NC(C)=O)Oc2cc(O)ccc2C1c1cccnc1 (centres unmarked) [Compound 2, Ethyl 2-(acetylamino)-7-hydroxy-4-pyridin-3-yl-4H-chromene-3-carboxylate]
- Fold change in 3H-2DOG uptake (hippocampal slices; dbcAMP & compound versus dbcAMP alone (=1), 100 nM): 1.7
- dibutyryl cAMP-evoked glucose uptake (hippocampal slices): increase in dibutyryl cAMP-evoked glucose uptake
